Assay results published in patent publication US11104670B2, “4-pyrimidin-5-ylmethyl-morpholine derivatives and the use thereof as medicament” (Boehringer Ingelheim International GmbH, priority 2018, dated 2021).

Legend:
NMDA NR1/NR2B receptor = NMDA NR1/NR2B receptor (Homo sapiens (Human), UniProt Q13224); experiment: NMDA NR1/NR2B FLIPR calcium assay in HEK293 cells; format: cell-based; settings: glycine/glutamate-induced calcium, read-out: IC50, in vitro NR2B affinity in the FLIPR assay
Procedure: A human HEK293 cell line with tetracyclin-inducible expression of NMDA NR1/NR2B receptor was used as a test system for compound efficacy and potency. The cell line was purchased from ChanTest, Catalog #CT6121. Compound activity was determined by measuring the effect of compounds on intracellular calcium concentration induced by glycine/glutamate agonism in a FLIPRtetra system (Molecular Devices).
The cells were obtained as frozen cells in cryo-vials and stored until use at −150° C. Cells were grown in culture medium (DMEM/F12, 10% FBS, 5 μg/mL Blasticidin, 150 μg/mL Zeozin, 500 μg/mL Geneticin). […] For sub-culturing the cells were detached from flasks by Versene. For the assay, cells were detached, washed twice with induction medium (DMEM/F12 without glutamine, 10% FBS, 2 μg/mL Tetracycline, 2 mM Ketamine) and seeded to 384 well pure coat amine plates (Becton Dickinson, 50000 cells per well in 50 μl) 48 h prior to assay in induction medium.
The test compounds were dissolved in 100% DMSO at a concentration of 10 mM and in a first step diluted in DMSO to a concentration of 5 mM, followed by serial dilution steps in 100% DMSO. Dilution factor and number of dilution steps may vary according to needs. Typically 8 different concentrations by 1:5 dilutions were prepared in duplicate, further intermediate dilutions (1:37.5) of the substances were carried out with aqueous assay buffer (137 mM NaCl, 4 mM KCl, 1.8 mM CaCl2), 10 mM HEPES, 10 mM Glucose, pH 7.4) resulting in a compound concentration 3 times above the final test concentration and DMSO at 2.7% resulting in 0.9% final DMSO concentration in the assay.
At the assay day cells were washed 3× with assay buffer (as described above), 10 μL buffer remained in the wells after washing. 10 μL Ca kit loading buffer (AAT Bioquest; prepared from the kit containing the following components: Component A: Fluo-8 NW dissolved in 200 μL DMSO and 20 μl of this solution are mixed with 10 ml buffer prepared out of component B and C, Component B: 10× Pluronic® F127 Plus diluted 1:10 in component C, Component C: HHBS (Hanks with 20 mM Hepes) was added to the cells and the plates were incubated with lid for 60 minutes at room temperature. 20 μl assay buffer containing 60 μM glycine (20 μM final) and 3 μM glutamate (1 μM final) was added to column 1-23, column 24 got assay buffer without glycine/glutamate to serve as negative unstimulated control. Fluorescence (indicating the calcium influx as a result of the NR1/NR2B ion channel activation) was read on the FLIPRtetra device for 60 seconds to monitor the glutamate induced effects. After 2 minutes 20 μL of compound dilution prepared as described above or controls (row 1-22) in assay buffer were carefully added to the wells. […] The average of 2 measurements at 5 minutes and 5 min 10 seconds after compound addition is calculated and further used for IC50 calculations. Each assay microtiter compound dilution plate contained wells (in column 23 or 24) with DMSO controls instead of compound as controls for glycine/glutamate induced fluorescence (high controls) and wells with 1 μM of a reference NR2B NAM as low controls (Compound 22; reference: Layton, Mark E et al, ACS Chemical Neuroscience 2011, 2(7), 352-362).
The output file of the reader contains the well number and measured average fluorescence units. For data evaluation and calculation, the measurement of the low control was set as 0% control and the measurement of the high control was set as 100% control. The IC50 values were calculated using the standard 4 parameter logistic regression formula. Calculation: [y=(a−d)/(1+(x/c)^b)+d], a=low value, d=high value; x=conc M; c=IC50 M; b=slope.

MDR1 (P-gp) = MDR1 (P-gp) (Homo sapiens (Human), UniProt P08183); experiment: MDCK assay P-gp (MDCK-MDR1 monolayer permeability); format: in vitro ADME; settings: for Papp A→B: MDCK-MDR1, apical-to-basal, pH 7.4; for efflux ratio: MDCK-MDR1, pH 7.4, Papp (b-a) divided by Papp (a-b), read-out: efflux ratio PEBA/PEAB
Procedure: The MDCK assays provide information on the potential of a compound to pass the blood brain barrier. Permeability measurements across polarized, confluent MDCK-MDR1 cell monolayers grown on permeable filter supports are used as an in vitro absorption model: apparent permeability coefficients (PE) of the compounds across the MDCK-MDR1 cell monolayers are measured (pH 7.4, 37° C.) in apical-to-basal (AB) and basal-to-apical (BA) transport direction. The AB permeability (PEAB) represents drug absorption from the blood into the brain and the BA permeability (PEBA) drug efflux from the brain back into the blood via both, passive permeability as well as active transport mechanisms mediated by efflux and uptake transporters that are expressed on the MDCK-MDR1 cells, predominantly by the overexpressed human MDR1. Identical or similar permeabilities in both transport directions indicate passive permeation (PEBA/PEAB≤1), vectorial permeability points to additional active transport mechanisms. Higher PEBA than PEAB (PEBA/PEAB>5) indicates the involvement of active efflux mediated by MDR1, which might compromise the goal to achieve sufficient brain exposure. Therefore, this assay provides valuable support for selection of compounds applicable for further in vivo testing. High permeability not limited by efflux at the blood brain barrier is a favourable characteristic for compounds that are to be used for drugs acting primarily in the CNS.
Apparent permeability coefficients (Papp) of the compounds across the MDCK-MDR1 monolayers (MDCKII cells transfected with human MDR1 cDNA expression plasmid) are measured in apical-to-basal (AB) and basal-to-apical (BA) direction.
MDCK-MDR1 cells (6×10^5 cells/cm^2) are seeded on filter inserts (Corning, Transwell, polycarbonate, 0.4 μm pore size) and cultured for 9 to 10 days. Compounds dissolved in DMSO stock solution (1-20 mM) are diluted with HTP-4 aqueous buffer (128.13 mM NaCl, 5.36 mM KCl, 1 mM MgSO4, 1.8 mM CaCl2, 4.17 mM NaHCO3, 1.19 mM Na2HPO4, 0.41 mM NaH2PO4, 15 mM HEPES, 20 mM glucose, pH 7.4) supplemented with 0.25% BSA to prepare the transport solutions (final concentration: 1 or 10 μM, final DMSO <=0.5%). The transport solution is applied to the apical or basolateral donor side for measuring A-B or B-A permeability, respectively. The receiver side contains HTP-4 buffer supplemented with 0.25% BSA. Samples are collected at the start and end of experiment from the donor and at various time intervals for up to 2 hours also from the receiver side for concentration measurement by HPLC-MS/MS (RapidFire High-throughput MS System (Agilent) coupled to QTrap 6500 (AB Sciex) or TSQ Vantage (Thermo Scientific)). Sampled receiver volumes are replaced with fresh receiver solution. Efflux ratio is calculated dividing the Papp (b-a) values by the Papp (a-b) values.

Sequence of NMDA NR1/NR2B receptor (Q13224 27-1484, other chains not shown): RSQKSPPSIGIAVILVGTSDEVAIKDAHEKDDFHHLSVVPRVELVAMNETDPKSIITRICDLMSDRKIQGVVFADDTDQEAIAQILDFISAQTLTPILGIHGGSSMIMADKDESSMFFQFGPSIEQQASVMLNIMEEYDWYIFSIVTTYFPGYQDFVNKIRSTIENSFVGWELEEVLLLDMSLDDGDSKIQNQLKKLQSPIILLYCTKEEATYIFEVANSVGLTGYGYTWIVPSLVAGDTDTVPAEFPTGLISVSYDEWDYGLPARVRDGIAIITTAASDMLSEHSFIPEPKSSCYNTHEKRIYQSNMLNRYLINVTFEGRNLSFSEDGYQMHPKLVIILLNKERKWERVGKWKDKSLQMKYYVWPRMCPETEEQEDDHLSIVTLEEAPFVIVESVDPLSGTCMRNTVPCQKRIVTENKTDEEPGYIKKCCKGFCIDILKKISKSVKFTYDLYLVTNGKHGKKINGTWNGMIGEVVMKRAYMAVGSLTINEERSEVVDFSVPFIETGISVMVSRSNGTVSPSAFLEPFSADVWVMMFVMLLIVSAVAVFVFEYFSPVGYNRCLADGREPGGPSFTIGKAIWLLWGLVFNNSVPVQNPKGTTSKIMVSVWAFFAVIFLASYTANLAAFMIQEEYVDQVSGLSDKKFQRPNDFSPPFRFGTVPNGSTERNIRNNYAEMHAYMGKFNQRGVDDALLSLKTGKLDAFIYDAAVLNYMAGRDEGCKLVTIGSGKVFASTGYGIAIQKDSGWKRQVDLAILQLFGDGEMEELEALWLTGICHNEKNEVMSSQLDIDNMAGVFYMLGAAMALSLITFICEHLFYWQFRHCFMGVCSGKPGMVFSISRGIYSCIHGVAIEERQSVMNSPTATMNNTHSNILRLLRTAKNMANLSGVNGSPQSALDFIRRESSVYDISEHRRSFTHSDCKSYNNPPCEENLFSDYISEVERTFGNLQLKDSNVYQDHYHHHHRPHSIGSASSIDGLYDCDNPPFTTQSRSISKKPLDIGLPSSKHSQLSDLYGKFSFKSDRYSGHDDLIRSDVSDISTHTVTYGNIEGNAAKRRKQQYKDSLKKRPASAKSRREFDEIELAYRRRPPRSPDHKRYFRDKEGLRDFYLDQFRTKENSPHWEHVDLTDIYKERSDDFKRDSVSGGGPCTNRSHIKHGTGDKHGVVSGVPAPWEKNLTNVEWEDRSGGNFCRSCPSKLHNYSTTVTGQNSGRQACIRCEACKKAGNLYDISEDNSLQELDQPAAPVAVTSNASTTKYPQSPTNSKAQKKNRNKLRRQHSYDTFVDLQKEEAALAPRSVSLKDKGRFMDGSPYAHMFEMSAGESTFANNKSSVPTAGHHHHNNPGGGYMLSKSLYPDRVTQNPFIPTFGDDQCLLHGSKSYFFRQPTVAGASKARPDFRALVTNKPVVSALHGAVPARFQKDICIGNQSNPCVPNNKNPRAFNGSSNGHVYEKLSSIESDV

CNC(=O)[C@@H]1CN(Cc2cnc(Oc3ccc(C)cc3F)nc2)CCO1 [Example 20]
IC50 (NMDA NR1/NR2B receptor): 133 nM | Papp A→B (MDR1 (P-gp)): 80 ×10⁻⁶ cm/s | efflux ratio (MDR1 (P-gp)): 0.7

CNC(=O)[C@@H]1CN(Cc2cnc(Oc3ccc(F)cc3C)nc2)CCO1 [Example 21]
IC50 (NMDA NR1/NR2B receptor): 702 nM | Papp A→B (MDR1 (P-gp)): 56 ×10⁻⁶ cm/s | efflux ratio (MDR1 (P-gp)): 1

CNC(=O)[C@@H]1CN(Cc2cnc(Oc3ccc(C)cc3C)nc2)CCO1 [Example 22]
IC50 (NMDA NR1/NR2B receptor): 1110 nM | Papp A→B (MDR1 (P-gp)): 57 ×10⁻⁶ cm/s | efflux ratio (MDR1 (P-gp)): 0.7

CNC(=O)[C@@H]1CN(Cc2cnc(Oc3ccc(F)cc3F)nc2)CCO1 [Example 23]
IC50 (NMDA NR1/NR2B receptor): 143 nM | Papp A→B (MDR1 (P-gp)): 65 ×10⁻⁶ cm/s | efflux ratio (MDR1 (P-gp)): 0.9

CNC(=O)[C@@H]1CN(Cc2cnc(Oc3ccc(Cl)cc3F)nc2)CCO1 [Example 24]
IC50 (NMDA NR1/NR2B receptor): 98 nM | Papp A→B (MDR1 (P-gp)): 56 ×10⁻⁶ cm/s | efflux ratio (MDR1 (P-gp)): 0.8

CNC(=O)[C@@H]1CN(Cc2cnc(Oc3ccc(Cl)cc3)nc2)CCO1 [Example 25]
IC50 (NMDA NR1/NR2B receptor): 216 nM | Papp A→B (MDR1 (P-gp)): 88 ×10⁻⁶ cm/s | efflux ratio (MDR1 (P-gp)): 0.5

CNC(=O)[C@@H]1CN(Cc2cnc(Oc3ccccc3Cl)nc2)CCO1 [Example 26]
IC50 (NMDA NR1/NR2B receptor): 550 nM | Papp A→B (MDR1 (P-gp)): 95 ×10⁻⁶ cm/s | efflux ratio (MDR1 (P-gp)): 0.6

CNC(=O)[C@@H]1CN(Cc2cnc(Oc3ccccc3F)nc2)CCO1 [Example 27]
IC50 (NMDA NR1/NR2B receptor): 350 nM | Papp A→B (MDR1 (P-gp)): 54 ×10⁻⁶ cm/s | efflux ratio (MDR1 (P-gp)): 0.7

CNC(=O)[C@@H]1CN(Cc2cnc(Oc3ccc(C)cc3)nc2)CCO1 [Example 28]
IC50 (NMDA NR1/NR2B receptor): 500 nM | Papp A→B (MDR1 (P-gp)): 83 ×10⁻⁶ cm/s | efflux ratio (MDR1 (P-gp)): 0.5

CNC(=O)[C@@H]1CN(Cc2cnc(Oc3ccc(F)cc3)nc2)CCO1 [Example 32]
IC50 (NMDA NR1/NR2B receptor): 547 nM | Papp A→B (MDR1 (P-gp)): 82 ×10⁻⁶ cm/s | efflux ratio (MDR1 (P-gp)): 0.5
